The data set relates to CCRIS mutagenicity, Ames/micronucleus/aberration tests. Briefly: CCRIS mutagenicity studies.
[1] abbreviates: Test System: AMES SALMONELLA TYPHIMURIUM, Strain/Indicator: TA98, Metabolic Activation: NONE, Method: STANDARD PLATE.
The mark [2] stands for this setting: Test System: AMES SALMONELLA TYPHIMURIUM, Strain/Indicator: TA98, Metabolic Activation: RAT, LIVER, S-9, AROCLOR 1254, Method: STANDARD PLATE.
Where [3] appears, read: Test System: AMES SALMONELLA TYPHIMURIUM, Strain/Indicator: TA100, Metabolic Activation: NONE, Method: STANDARD PLATE.
The mark [4] stands for this setting: Test System: AMES SALMONELLA TYPHIMURIUM, Strain/Indicator: TA100, Metabolic Activation: RAT, LIVER, S-9, AROCLOR 1254, Method: STANDARD PLATE.
[5] abbreviates: Test System: AMES SALMONELLA TYPHIMURIUM, Strain/Indicator: TA1535, Metabolic Activation: NONE, Method: STANDARD PLATE.
Where [6] appears, read: Test System: AMES SALMONELLA TYPHIMURIUM, Strain/Indicator: TA1535, Metabolic Activation: RAT, LIVER, S-9, AROCLOR 1254, Method: STANDARD PLATE.
The mark [7] stands for this setting: Test System: AMES SALMONELLA TYPHIMURIUM, Strain/Indicator: TA1537, Metabolic Activation: NONE, Method: STANDARD PLATE.
Setting [8] is: Test System: AMES SALMONELLA TYPHIMURIUM, Strain/Indicator: TA1537, Metabolic Activation: RAT, LIVER, S-9, AROCLOR 1254, Method: STANDARD PLATE.
[9] abbreviates: Test System: AMES SALMONELLA TYPHIMURIUM, Strain/Indicator: TA1538, Metabolic Activation: NONE, Method: STANDARD PLATE.
Setting [10] is: Test System: AMES SALMONELLA TYPHIMURIUM, Strain/Indicator: TA1538, Metabolic Activation: RAT, LIVER, S-9, AROCLOR 1254, Method: STANDARD PLATE.
Where [11] appears, read: Test System: AMES SALMONELLA TYPHIMURIUM, Strain/Indicator: G46, Metabolic Activation: RAT, LIVER, S-9, AROCLOR 1254, Method: STANDARD PLATE.

Calls of active or inactive are those of the source. The rule behind the calls is not given here.

`CC(C)Cc1ccc(C(C)C(=O)O)cc1` (stereo not drawn): the mutagenic call was “inactive; negative” (Test System: AMES SALMONELLA TYPHIMURIUM, Strain/Indicator: TA97A, Metabolic Activation: NONE, Method: STANDARD PLATE); “inactive; negative” (Test System: AMES SALMONELLA TYPHIMURIUM, Strain/Indicator: TA97A, Metabolic Activation: RAT, LIVER, S-9, PHENOBARBITAL, Method: STANDARD PLATE); “inactive; negative” (Test System: AMES SALMONELLA TYPHIMURIUM, Strain/Indicator: TA98, Metabolic Activation: HAMSTER, LIVER, S-9, AROCLOR 1254, Method: STANDARD PLATE); “inactive; negative” (Test System: AMES SALMONELLA TYPHIMURIUM, Strain/Indicator: TA98, Metabolic Activation: MOUSE, LIVER, S-9, AROCLOR 1254, Method: STANDARD PLATE); “inactive; negative” under setting [1]; “inactive; negative” under setting [2]. Besides, the mutagenic call reads like this: (Test System: AMES SALMONELLA TYPHIMURIUM, Strain/Indicator: TA100, Metabolic Activation: HAMSTER, LIVER, S-9, AROCLOR 1254, Method: STANDARD PLATE) “inactive; negative”; (Test System: AMES SALMONELLA TYPHIMURIUM, Strain/Indicator: TA100, Metabolic Activation: MOUSE, LIVER, S-9, AROCLOR 1254, Method: STANDARD PLATE) “inactive; negative”; under setting [3], “inactive; negative”; under setting [4], “inactive; negative”; (Test System: AMES SALMONELLA TYPHIMURIUM, Strain/Indicator: TA100, Metabolic Activation: RAT, LIVER, S-9, PHENOBARBITAL, Method: STANDARD PLATE) “inactive; negative”; (Test System: AMES SALMONELLA TYPHIMURIUM, Strain/Indicator: TA102, Metabolic Activation: NONE, Method: STANDARD PLATE) “inactive; negative”. The mutagenic call was “inactive; negative” (Test System: AMES SALMONELLA TYPHIMURIUM, Strain/Indicator: TA102, Metabolic Activation: RAT, LIVER, S-9, PHENOBARBITAL, Method: STANDARD PLATE); “inactive; negative” (Test System: AMES SALMONELLA TYPHIMURIUM, Strain/Indicator: TA1535, Metabolic Activation: HAMSTER, LIVER, S-9, AROCLOR 1254, Method: STANDARD PLATE); “inactive; negative” (Test System: AMES SALMONELLA TYPHIMURIUM, Strain/Indicator: TA1535, Metabolic Activation: MOUSE, LIVER, S-9, AROCLOR 1254, Method: STANDARD PLATE); “inactive; negative” under setting [5]; “inactive; negative” under setting [6]; “inactive; negative” (Test System: AMES SALMONELLA TYPHIMURIUM, Strain/Indicator: TA1537, Metabolic Activation: HAMSTER, LIVER, S-9, AROCLOR 1254, Method: STANDARD PLATE). For the same compound, the mutagenic call is “inactive; negative” (Test System: AMES SALMONELLA TYPHIMURIUM, Strain/Indicator: TA1537, Metabolic Activation: MOUSE, LIVER, S-9, AROCLOR 1254, Method: STANDARD PLATE); “inactive; negative” under setting [7]; “inactive; negative” under setting [8]; “inactive; negative” (Test System: AMES SALMONELLA TYPHIMURIUM, Strain/Indicator: TA1538, Metabolic Activation: HAMSTER, LIVER, S-9, AROCLOR 1254, Method: STANDARD PLATE); “inactive; negative” (Test System: AMES SALMONELLA TYPHIMURIUM, Strain/Indicator: TA1538, Metabolic Activation: MOUSE, LIVER, S-9, AROCLOR 1254, Method: STANDARD PLATE); “inactive; negative” under setting [9]. Besides, the mutagenic call under setting [10] was “inactive; negative”.
Consider `O=S(=O)(O)N(S(=O)(=O)O)S(=O)(=O)O`, for which the mutagenic call reads like this: under setting [11], “inactive; negative”; under setting [4], “inactive; negative”.
Consider `O=S(=O)(O)N(O)S(=O)(=O)O`, for which the mutagenic call runs as follows: under setting [11], “active; positive”; under setting [4], “active; positive”.
Turning to `O=C1CCC(N2C(=O)c3ccccc3C2=O)C(=O)N1` (stereo not drawn), the mutagenic call by setting is: (Test System: AMES SALMONELLA TYPHIMURIUM, Strain/Indicator: TA97, Metabolic Activation: NONE, Method: STANDARD PLATE) “inactive; negative”; (Test System: AMES SALMONELLA TYPHIMURIUM, Strain/Indicator: TA97, Metabolic Activation: RAT, LIVER, S-9, AROCLOR 1254, Method: STANDARD PLATE) “inactive; negative”; under setting [1], “inactive; negative”; (Test System: AMES SALMONELLA TYPHIMURIUM, Strain/Indicator: TA98, Metabolic Activation: RAT, LIVER, S-9, AROCLOR 1254 (4, 10 OR 30%), Method: PREINCUBATION) “inactive; negative”; under setting [2], “inactive; negative”; under setting [3], “inactive; negative”. Moreover, the mutagenic call runs as follows: (Test System: AMES SALMONELLA TYPHIMURIUM, Strain/Indicator: TA100, Metabolic Activation: RAT, LIVER, S-9, AROCLOR 1254 (10%), Method: PREINCUBATION) “inactive; negative”; under setting [4], “inactive; negative”; under setting [5], “inactive; negative”; under setting [6], “inactive; negative”; under setting [7], “inactive; negative”; under setting [8], “inactive; negative”. Also, the mutagenic call is “inactive; negative” under setting [9]; “inactive; negative” under setting [10]; “inactive; negative” (Test System: MOUSE LYMPHOMA, Strain/Indicator: L5178Y (TK+/TK-), Metabolic Activation: NONE, Method: MICROWELL); “inactive; negative” (Test System: MOUSE LYMPHOMA, Strain/Indicator: L5178Y (TK+/TK-), Metabolic Activation: RAT, LIVER, S-9, PHENOBARBITAL AND BETA-NAPHTHOFLAVONE, Method: MICROWELL).
With `c1cnc2c(c1)ccc1c3cccnc3ccc12`, the mutagenic call was “active; positive” (Test System: AMES SALMONELLA TYPHIMURIUM, Strain/Indicator: TA100, Metabolic Activation: POOLED HUMAN LIVER MICROSOMES, Method: PREINCUBATION); “active; positive” (Test System: AMES SALMONELLA TYPHIMURIUM, Strain/Indicator: TA100, Metabolic Activation: RAT, LIVER, S-9, PHENOBARBITAL AND 5,6-BENZOFLAVONE, Method: PREINCUBATION); “active; positive; g:c to t:a transversions in all organs” (Test System: LACZ TRANSGENIC MOUSE (MUTATM MOUSE), Strain/Indicator: LACZ MUTANT FREQUENCY, Method: LIVER, SPLEEN, LUNG, KIDNEY, BONE MARROW, COLON HARVESTED 7 D AFTER LAST DOSE, DNA ISOLATED).

Source of the values: PubChem BioAssay AID1259407 (Chemical Carcinogenesis Research Information System (CCRIS), 2018).
